US4077981A, “Certain 1-alkyl-2-dichlorophenyliminopyrrolidines” (Bayer Aktiengesellschaft, priority 1968, dated 1978)
Where two headings read alike, the source gives them in different places.

Experiments:
[1] = tested on: Boophilus microplus, Biarra strain (resistant); test: In-vitro test for ovicidal effect on ticks (Biarra strain); conditions: Rhipicephalus microplus, 840 h, resistant, after 35 days, read-out: Inhibition of egg depositing
Protocol: (§1) In-vitro Test for Ovicidal Effect on Ticks
The emulsion concentrate so obtained is diluted with water to the application concentration desired in each case.
After immersion of, in each case, 10 female specimens of the various strains of ticks, the individual ticks are transferred to plastic dishes, the bottom of each of which is covered with a disc of filter paper.

[2] = tested on: Boophilus microplus, normally sensitive strain; test: In-vitro test for ovicidal effect on ticks (normally sensitive strain); conditions: Rhipicephalus microplus, 840 h, after 35 days, read-out: Inhibition of egg depositing
Protocol: as §1
(§2) 3 g of the particular active compound are mixed with 7 g of a mixture of equal parts by weight of ethyleneglycol monomethyl ether and nonylphenyl polyglycol ether. The emulsion concentrate so obtained is diluted with water to the application concentration desired in each case.
(§3) Adult, fully engorged female ticks of the species Boophilus microplus (resistant) are immersed for 1 minute in this preparation of the given active compound. After immersion of, in each case, 10 female specimens of the various strains of ticks, the individual ticks are transferred to plastic dishes, the bottom of each of which is covered with a disc of filter paper. As a control, similar ticks of a normally sensitive strain are treated in exactly the same manner.
(§4) After 35 days, the effectiveness of the preparation of the given active compound is determined by ascertaining the inhibition of the depositing of fertile eggs compared with the egg depositing of untreated control ticks. The effect is stated in %, 100% meaning that fertile eggs ceased to be deposited, and 0% signifying that the ticks have deposited eggs in normal manner like the untreated control ticks.

[3] = tested on: Boophilus microplus, Ridgeland strain (resistant); test: In-vitro test for ovicidal effect on ticks (Ridgeland strain); conditions: Rhipicephalus microplus, 840 h, Ridgeland strain, resistant, after 35 days, read-out: Inhibition of egg depositing
Protocol: as §1, §2, §3, §4

[4] = tested on: Boophilus microplus, Biarra strain; test: In-vivo test against ticks on cattle; parameters: species or system Boophilus microplus (on cattle)
Protocol: In-vivo test against ticks on cattle
3 parts of the particular active compound are mixed with 7 parts of a mixture of equal parts by weight of ethyleneglycol monomethyl ether and nonylphenyl polyglycol ether. The emulsion concentrate so obtained is diluted with water to the application concentration desired in each case.
Cattle which have been infected (12 times at intervals of 2 days) with resistant larvae of ticks of the species Boophilus microplus, Biarra strain, are sprayed on the 24th day after the first infection with the preparation of the given active compound so obtained.
The effect of the preparation of the given active compound is determined by ascertaining the number of adult female ticks which have reached development on the treated cattle and later lay viable eggs. This number is compared with the number of adult femal ticks which have reached development on untreated cattle.
As a measure of the intensity of the infestation before treatment, there is used the number of adult females which reach development in the case of the treated and untreated animals in the last three days before the time of treatment.

Toxicity on the mouse = conditions: in vivo, read-out: Toxicity (highest survived dose)
Protocol: The toxicity determined on the mouse is: orally, 500 mg/kg; subcutaneously,500 mg/kg (highest survived doses).

CN1CCCC1=Nc1ccc(Cl)cc1Cl [l1, 1-methyl-2-(2',4'-dichloro-phenylimino)-pyrrolidine]
inhibition at 0.01 % strength ([1]; 0.01% active compound): 0% | inhibition at 0.03 % strength ([1]; 0.03% active compound): > 50% | inhibition at 0.1 % strength ([1]; 0.1% active compound): 100% | inhibition at 0.3 % strength ([1]; 0.3% active compound): 100% | inhibition at 1 % strength ([1]; 1.0% active compound): 100% | inhibition at 0.01 % strength ([2]; 0.01% active compound): 0% | inhibition at 0.03 % strength ([2]; 0.03% active compound): > 50% | inhibition at 0.1 % strength ([2]; 0.1% active compound): 100% | inhibition at 0.3 % strength ([2]; 0.3% active compound): 100% | inhibition at 1 % strength ([2]; 1.0% active compound): 100% | inhibition at 0.01 % strength ([3]; 0.01% active compound): 0% | inhibition at 0.03 % strength ([3]; 0.03% active compound): > 50% | inhibition at 0.1 % strength ([3]; 0.1% active compound): 100% | inhibition at 0.3 % strength ([3]; 0.3% active compound): 100% | inhibition at 1 % strength ([3]; 1.0% active compound): 100% | Number of female adult ticks which reach development on the cattle ([4]; 0.3%, days after treatment +4+5+6): 1 | Number of female adult ticks which reach development on the cattle ([4]; 0.3%, days after treatment +7+8+9): 119 | Number of female adult ticks which reach development on the cattle ([4]; 0.4%, days after treatment +7+8+9): 72 | Number of female adult ticks which reach development on the cattle ([4]; 0.5%, days after treatment +7+8+9): 1 | Number of female adult ticks which reach development on the cattle ([4]; 0.5%, days after treatment +10+11+12): 7 | Number of female adult ticks which reach development on the cattle ([4]; 0.5%, days after treatment +13+14+15): 3 | Number of female adult ticks which reach development on the cattle ([4]; 0.5%, days after treatment +16+17+18): 1 | Total number of female adult ticks which reach development on the cattle ([4]; 0.5%, total 1-21 days): 12

C=CCN1CCCC1=Nc1ccc(Cl)cc1Cl [Example 6, 1-(α-allyl)-2-(2',4'-dichloro-phenylimino)-pyrrolidine]
MTD (Toxicity on the mouse; po, orally): 500 mg/kg | MTD (Toxicity on the mouse; sc, subcutaneously): 500 mg/kg
